Common to all, as to format: cell-based
One assay addresses T1, hCTR W290A (Homo sapiens, UniProt P30988, W290A).
T1 construct: c-Myc (N); expressed in transfected cells
T1 sequence (P30988 25-474 W290A): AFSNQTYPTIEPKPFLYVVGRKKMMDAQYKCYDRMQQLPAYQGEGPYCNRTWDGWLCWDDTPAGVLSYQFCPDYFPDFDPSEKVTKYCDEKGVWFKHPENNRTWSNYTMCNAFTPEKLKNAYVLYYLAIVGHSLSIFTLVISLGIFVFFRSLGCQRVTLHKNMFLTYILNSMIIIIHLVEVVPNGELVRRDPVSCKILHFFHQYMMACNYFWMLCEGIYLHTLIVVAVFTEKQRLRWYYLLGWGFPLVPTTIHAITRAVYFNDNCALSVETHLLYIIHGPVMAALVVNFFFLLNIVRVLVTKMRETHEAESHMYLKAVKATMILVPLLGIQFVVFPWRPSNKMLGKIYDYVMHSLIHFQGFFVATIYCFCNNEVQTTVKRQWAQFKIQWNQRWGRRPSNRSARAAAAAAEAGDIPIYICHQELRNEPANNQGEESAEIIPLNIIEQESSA
Kind of assay: ERK1/2 phosphorylation. As to conditions: CV1-FlpIn cells, mean ± S.E.M.; for Emax: pERK maximal response. In a few lines: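 Read-out is phospho-ERK1/2, reported relative to the 10% FBS maximum taken at 6 min. Wells held 2.5 × 10^4 cells seeded the night before. Potency and efficacy reflect functional affinity, efficacy and stimulus-response coupling combined.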

The target of a further assay is T2, hCTR V358A (Homo sapiens, UniProt P30988, V358A).
T2 construct: c-Myc (N); expressed in transfected cells
T2 sequence (P30988 25-474 V358A): T1 sequence (P30988 25-474 W290A) with A266W, V334A
Kind of assay: IP1 accumulation. As to conditions: mean ± S.E.M.; for Emax: IP1 maximal response, SEM. In a few lines:
(§1)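 Concentration-response curves were fitted to a 3-parameter logistic model to estimate EC50 and Emax. Cells had been exposed to ligand for 60 min with LiCl, and lysate IP1 determined by HTRF, with normalization to 100 μM ATP.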

The target in another assay is T3, hCTR R362A (Homo sapiens, UniProt P30988, R362A).
T3 construct: expressed in transfected cells
T3 sequence (P30988 25-474 R362A): T1 sequence (P30988 25-474 W290A) with A266W, R338A
Kind of assay: IP1 accumulation. To be noted: mean ± S.E.M.; for Emax: IP1 maximal response, SEM. In a few lines:
as §1

In a further assay the target is T4, hCTR P363A (Homo sapiens, UniProt P30988, P363A).
T4 construct: expressed in transfected cells
T4 sequence (P30988 25-474 P363A): T1 sequence (P30988 25-474 W290A) with A266W, P339A
In words: IP1 accumulation. As to conditions: mean ± S.E.M.; for Emax: IP1 maximal response, SEM. In outline: as §1

The next assay has as its target T5, hCTR S292A (Homo sapiens, UniProt P30988, S292A).
T5 construct: expressed in transfected cells
T5 sequence (P30988 25-474 S292A): T1 sequence (P30988 25-474 W290A) with A266W, S268A
Kind of assay: IP1 accumulation. To be noted: mean ± S.E.M.; for Emax: IP1 maximal response, SEM. In a few lines:
as §1

Setting [1] is: IP1, CV1-FlpIn cells, 60 min, LiCl.

Numbering of substitutions follows the chain as printed. Where a SMILES comes first, the peptide text is derived from it. Bridges are numbered along the chain shown (N, C = ends).

`CC(C)C[C@H](NC(=O)[C@H](CCCCN)NC(=O)CNC(=O)[C@H](CC(C)C)NC(=O)[C@@H](NC(=O)[C@@H]1CSSC[C@H](N)C(=O)N[C@@H](CO)C(=O)N[C@@H](CC(N)=O)C(=O)N[C@@H](CC(C)C)C(=O)N[C@@H](CO)C(=O)N[C@@H]([C@@H](C)O)C(=O)N1)C(C)C)C(=O)N[C@@H](CO)C(=O)N[C@@H](CCC(N)=O)C(=O)N[C@@H](CCC(=O)O)C(=O)N[C@@H](CC(C)C)C(=O)N[C@@H](Cc1c[nH]cn1)C(=O)N[C@@H](CCCCN)C(=O)N[C@@H](CC(C)C)C(=O)N[C@@H](CCC(N)=O)C(=O)N[C@H](C(=O)N[C@@H](Cc1ccc(O)cc1)C(=O)N1CCC[C@H]1C(=O)N[C@@H](CCCNC(=N)N)C(=O)N[C@H](C(=O)N[C@@H](CC(N)=O)C(=O)N[C@H](C(=O)NCC(=O)N[C@@H](CO)C(=O)NCC(=O)N[C@H](C(=O)N1CCC[C@H]1C(N)=O)[C@@H](C)O)[C@@H](C)O)[C@@H](C)O)[C@@H](C)O` [sCT]: the Emax – broadly, the maximal effect, on the per cent scale that the assay sets – came to 38 ± 4% at hCTR W290A; 123 ± 6% at hCTR V358A; 64 ± 5% at hCTR R362A; 86 ± 9% at hCTR P363A; 91 ± 6% on hCTR S292A.

For `CSCC[C@H](NC(=O)CNC(=O)[C@H](CO)NC(=O)[C@H](Cc1ccccc1)NC(=O)[C@H](CCCNC(=N)N)NC(=O)[C@H](Cc1c[nH]cn1)NC(=O)[C@H](Cc1ccccc1)NC(=O)[C@H](CC(N)=O)NC(=O)[C@H](CC(N)=O)NC(=O)[C@H](CC(C)C)NC(=O)[C@H](CC(N)=O)NC(=O)[C@H](CCCNC(=N)N)NC(=O)[C@H](Cc1c[nH]c2ccccc12)NC(=O)[C@H](Cc1ccc(O)cc1)NC(=O)[C@H](C)NC(=O)[C@H](CO)NC(=O)[C@H](CC(C)C)NC(=O)[C@@H](NC(=O)[C@@H]1CSSC[C@H](N)C(=O)N[C@@H](CO)C(=O)N[C@@H](CC(N)=O)C(=O)N[C@@H](CC(C)C)C(=O)N[C@@H](CO)C(=O)N[C@@H]([C@@H](C)O)C(=O)N1)C(C)C)C(=O)NCC(=O)N[C@@H](Cc1ccccc1)C(=O)NCC(=O)N1CCC[C@H]1C(=O)N[C@@H](CCC(=O)O)C(=O)N[C@H](C(=O)N1CCC[C@H]1C(N)=O)[C@@H](C)O` [pCT] (H-CSNLSTCVLSAYWRNLNNFHRFSGMGFGPETP-NH2; disulfide 1-7), the Emax is 28 ± 3% at hCTR W290A; 73 ± 6% on hCTR V358A; 47 ± 9% on hCTR R362A; 73 ± 10% at hCTR P363A; 92 ± 7% on hCTR S292A. Further, the EC50 (commonly the concentration giving half of the maximal effect) at hCTR W290A (pERK, three-parameter logistic fit) is 7.41 nM; on hCTR V358A (setting [1]), 3.31 nM; on hCTR R362A (setting [1]) it was 19.5 nM; on hCTR P363A (setting [1]) it was 6.17 nM; at hCTR S292A (setting [1]), 4.27 nM.

Consider `CC[C@H](C)[C@H](NC(=O)[C@H](C)NC(=O)[C@@H](NC(=O)[C@H](CCC(N)=O)NC(=O)[C@@H]1CCCN1C(=O)[C@H](Cc1ccccc1)NC(=O)[C@@H](NC(=O)[C@H](Cc1c[nH]cn1)NC(=O)[C@H](Cc1ccccc1)NC(=O)[C@H](CCCCN)NC(=O)[C@H](CC(N)=O)NC(=O)[C@H](Cc1ccccc1)NC(=O)[C@H](CC(=O)O)NC(=O)[C@H](CCC(N)=O)NC(=O)[C@@H](NC(=O)[C@H](Cc1ccc(O)cc1)NC(=O)[C@@H](NC(=O)CNC(=O)[C@H](CC(C)C)NC(=O)[C@H](CCSC)NC(=O)[C@@H]1CSSC[C@H](N)C(=O)NCC(=O)N[C@@H](CC(N)=O)C(=O)N[C@@H](CC(C)C)C(=O)N[C@@H](CO)C(=O)N[C@@H]([C@@H](C)O)C(=O)N1)[C@@H](C)O)[C@@H](C)O)[C@@H](C)O)[C@@H](C)O)C(=O)NCC(=O)N[C@H](C(=O)NCC(=O)N[C@@H](C)C(=O)N1CCC[C@H]1C(N)=O)C(C)C` [hCT], for which the Emax is 126 ± 9% on hCTR V358A, 77 ± 11% at hCTR R362A and 70 ± 6% at hCTR S292A.
